Test results published in the supplement of paper PMC10307832.

Columns and labels:
Assay in all cases: relative viability (nuclei count vs DMSO), 5 days (fraction); higher = more cells survive
UMC-11 = system: UMC-11
Outline: (§1)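 Lung cancer cell lines were pin-tool dosed in 1536-well plates on the day after seeding, with either a lone drug or a fixed anchor-drug dose plus five library-drug doses (not always all listed) in √10 steps. Nuclei were counted on 4× images after 5 days. Relative viability is the ratio of treated-well to vehicle-well nuclei counts, with each value a median of duplicate plates.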

NCI-H1993 = system: NCI-H1993
Outline: as §1

NCI-H1648 = system: NCI-H1648
Outline: as §1

NCI-H23 = system: NCI-H23
Outline: as §1

NCI-H1355 = system: NCI-H1355
Outline: as §1

NCI-H322M = system: NCI-H322M
Outline: as §1

LCLC-97TM1 = system: LCLC-97TM1
Outline: as §1

IA-LM = system: IA-LM
Outline: as §1

EBC-1 = system: EBC-1
Outline: as §1

NCI-H1703 = system: NCI-H1703
Outline: as §1

NCI-H1299 = system: NCI-H1299
Outline: as §1

A549 = system: A549
Outline: as §1

NCI-H596 = system: NCI-H596
Outline: as §1

Calu-6 = system: Calu-6
Outline: as §1

Work on `O=c1cc(-c2cccc3c2Sc2ccccc2S3)oc(N2CCOCC2)c1` + CC(=O)c1c(C)c2cnc(Nc3ccc(N4CCNCC4)cn3)nc2n(C2CCCC2)c1=O [Palbociclib] (partner 0.5 µM) yielded a relative viability (UMC-11; first compound 0.08 µM) of 0.338, a relative viability (UMC-11; first compound 0.253 µM) of 0.328 and a relative viability (UMC-11; first compound 0.8 µM) of 0.346. It also gave a relative viability (UMC-11; first compound 2.53 µM) of 0.326, a relative viability (UMC-11; first compound 8 µM) of 0.345 and a relative viability (NCI-H1993; first compound 0.08 µM) of 0.632. The relative viability (NCI-H1993; first compound 0.253 µM) was 0.674, the relative viability (NCI-H1993; first compound 0.8 µM) was 0.526 and the relative viability (NCI-H1993; first compound 2.53 µM) was 0.599. For the same molecule, the relative viability (NCI-H1993; first compound 8 µM) was 0.709, the relative viability (NCI-H1648; first compound 0.253 µM) was 0.324 and the relative viability (NCI-H1648; first compound 0.8 µM) was 0.281. The relative viability (NCI-H1648; first compound 8 µM) was 0.302, the relative viability (NCI-H23; first compound 0.08 µM) was 0.57 and the relative viability (NCI-H23; first compound 0.253 µM) was 0.485. For the same molecule, the relative viability (NCI-H23; first compound 0.8 µM) was 0.498, the relative viability (NCI-H23; first compound 2.53 µM) was 0.451 and the relative viability (NCI-H23; first compound 8 µM) was 0.451. It also gave a relative viability (NCI-H1355; first compound 0.08 µM) of 0.396, a relative viability (NCI-H1355; first compound 0.253 µM) of 0.428 and a relative viability (NCI-H1355; first compound 0.8 µM) of 0.371. The relative viability (NCI-H1355; first compound 2.53 µM) was 0.401, the relative viability (NCI-H1355; first compound 8 µM) was 0.264 and the relative viability (NCI-H322M; first compound 0.08 µM) was 0.453. The relative viability (NCI-H322M; first compound 0.253 µM) was 0.474, the relative viability (NCI-H322M; first compound 0.8 µM) was 0.502 and the relative viability (NCI-H322M; first compound 2.53 µM) was 0.449. For the same molecule, the relative viability (NCI-H322M; first compound 8 µM) was 0.475, the relative viability (LCLC-97TM1; first compound 0.08 µM) was 0.247 and the relative viability (LCLC-97TM1; first compound 0.253 µM) was 0.26. For the same molecule, the relative viability (LCLC-97TM1; first compound 0.8 µM) was 0.245, the relative viability (LCLC-97TM1; first compound 2.53 µM) was 0.228 and the relative viability (LCLC-97TM1; first compound 8 µM) was 0.241.

In the case of `O=c1cc(-c2cccc3c2Sc2ccccc2S3)oc(N2CCOCC2)c1` + CS(=O)(=O)CCNCc1ccc(-c2ccc3ncnc(Nc4ccc(OCc5cccc(F)c5)c(Cl)c4)c3c2)o1 [Lapatinib] (partner 2 µM), the relative viability (IA-LM; first compound 0.08 µM) is reported as 1.16, the relative viability (IA-LM; first compound 0.253 µM) is reported as 0.806 and the relative viability (IA-LM; first compound 0.8 µM) is reported as 0.693. It also gave a relative viability (IA-LM; first compound 8 µM) of 1.2, a relative viability (EBC-1; first compound 0.08 µM) of 0.201 and a relative viability (EBC-1; first compound 0.253 µM) of 0.191. It also gave a relative viability (EBC-1; first compound 0.8 µM) of 0.196, a relative viability (EBC-1; first compound 2.53 µM) of 0.204 and a relative viability (EBC-1; first compound 8 µM) of 0.202. The relative viability (UMC-11; first compound 0.08 µM) was 1.02, the relative viability (UMC-11; first compound 0.253 µM) was 1.28 and the relative viability (UMC-11; first compound 0.8 µM) was 1.21. The relative viability (UMC-11; first compound 2.53 µM) was 0.78, the relative viability (UMC-11; first compound 8 µM) was 1.29 and the relative viability (NCI-H1703; first compound 0.08 µM) was 0.886. The relative viability (NCI-H1703; first compound 0.253 µM) was 1.45, the relative viability (NCI-H1703; first compound 0.8 µM) was 0.94 and the relative viability (NCI-H1703; first compound 2.53 µM) was 1.1. For the same molecule, the relative viability (NCI-H1703; first compound 8 µM) was 0.971, the relative viability (NCI-H1993; first compound 0.08 µM) was 0.773 and the relative viability (NCI-H1993; first compound 0.253 µM) was 0.802. The relative viability (NCI-H1993; first compound 0.8 µM) was 0.849, the relative viability (NCI-H1993; first compound 2.53 µM) was 0.875 and the relative viability (NCI-H1993; first compound 8 µM) was 0.844. It also gave a relative viability (NCI-H1299; first compound 0.08 µM) of 0.972, a relative viability (NCI-H1299; first compound 0.253 µM) of 1 and a relative viability (NCI-H1299; first compound 0.8 µM) of 0.997. The relative viability (NCI-H1299; first compound 2.53 µM) was 0.975, the relative viability (NCI-H1299; first compound 8 µM) was 0.96 and the relative viability (NCI-H23; first compound 0.08 µM) was 1.1. The relative viability (NCI-H23; first compound 0.253 µM) was 1.34, the relative viability (NCI-H23; first compound 0.8 µM) was 1.14 and the relative viability (NCI-H23; first compound 2.53 µM) was 0.868. It also gave a relative viability (NCI-H23; first compound 8 µM) of 1.17, a relative viability (A549; first compound 0.08 µM) of 1.04 and a relative viability (A549; first compound 0.253 µM) of 1.23. The relative viability (A549; first compound 0.8 µM) was 1.19, the relative viability (A549; first compound 2.53 µM) was 0.87 and the relative viability (A549; first compound 8 µM) was 0.995. For the same molecule, the relative viability (NCI-H1355; first compound 0.08 µM) was 0.963, the relative viability (NCI-H1355; first compound 0.253 µM) was 1.15 and the relative viability (NCI-H1355; first compound 0.8 µM) was 0.799. The relative viability (NCI-H1355; first compound 2.53 µM) was 0.956, the relative viability (NCI-H1355; first compound 8 µM) was 1.05 and the relative viability (NCI-H322M; first compound 0.08 µM) was 0.64. It also gave a relative viability (NCI-H322M; first compound 0.253 µM) of 0.768, a relative viability (NCI-H322M; first compound 0.8 µM) of 0.529 and a relative viability (NCI-H322M; first compound 2.53 µM) of 0.564. It also gave a relative viability (NCI-H322M; first compound 8 µM) of 0.607, a relative viability (LCLC-97TM1; first compound 0.08 µM) of 0.753 and a relative viability (LCLC-97TM1; first compound 0.253 µM) of 0.781. The relative viability (LCLC-97TM1; first compound 0.8 µM) was 1.25, the relative viability (LCLC-97TM1; first compound 2.53 µM) was 0.685 and the relative viability (LCLC-97TM1; first compound 8 µM) was 1.18. It also gave a relative viability (NCI-H596; first compound 0.08 µM) of 1.06, a relative viability (NCI-H596; first compound 0.253 µM) of 1.06 and a relative viability (NCI-H596; first compound 0.8 µM) of 0.95. It also gave a relative viability (NCI-H596; first compound 2.53 µM) of 0.894, a relative viability (NCI-H596; first compound 8 µM) of 1.22 and a relative viability (Calu-6; first compound 0.08 µM) of 1.16. It also gave a relative viability (Calu-6; first compound 0.253 µM) of 1.16, a relative viability (Calu-6; first compound 0.8 µM) of 1.03 and a relative viability (Calu-6; first compound 2.53 µM) of 1.07. It also gave a relative viability (Calu-6; first compound 8 µM) of 1.15.
